Experimental data from ChEMBL document CHEMBL1121972, “Spasmolytic agents. 2. 1,2,3,4-Tetrahydro-2-naphthylamine derivatives” (1982).

Tests used:
Canis familiaris [1] = assay: Antispasmodic activity was measured on colonic contraction in anesthetized dog after iv administration of a dose of 0.1 mg/kg; assay type: functional, Canis lupus familiaris
Canis familiaris [2] = assay: Antispasmodic activity was measured on stomach contraction in anesthetized dog after iv administration of a dose of 0.1 mg/kg; assay type: functional, Canis lupus familiaris

CCCOc1ccc(C(=O)OCCCCN(CC)C2CCc3cc(OC)ccc3C2)cc1.Cl (stereo not given)
Activity (Canis familiaris [1]): 10.2 | Activity (Canis familiaris [2]): <5

CCN(CCCCOCc1ccc(OC)c(OC)c1)C1CCc2cc(OC)ccc2C1 (stereo not given)
Activity (Canis familiaris [1]): -4.3 | Activity (Canis familiaris [2]): <5

CCOc1ccc(C(=O)OCCCCN(CC)C2CCc3cc(OC)ccc3C2)cc1.Cl (stereo not given)
Activity (Canis familiaris [1]): -2.5 | Activity (Canis familiaris [2]): <5

CCN(CCOCCOC(=O)c1ccc(OC)c(OC)c1)C1CCc2cc(OC)ccc2C1.Cl (stereo not given)
Activity (Canis familiaris [1]): 0 | Activity (Canis familiaris [2]): <5

CCN(CCCCOC(=O)c1ccc(OC)c(OC)c1)C1CCc2cc(OC)c(OC)cc2C1.Cl (stereo not given)
Activity (Canis familiaris [2]): 11.8

CCN(CCCCOC(=O)c1c(OC)cccc1OC)C1CCc2cc(OC)ccc2C1.Cl (stereo not given)
Activity (Canis familiaris [1]): -8.7 | Activity (Canis familiaris [2]): <5

CCN(CCCCCCOC(=O)c1ccc(OC)c(OC)c1)C1CCc2cc(OC)ccc2C1.Cl (stereo not given)
Activity (Canis familiaris [2]): <5

CCN(CCOC(=O)c1ccc(OC)c(OC)c1)C1CCc2cc(OC)ccc2C1.Cl (stereo not given)
Activity (Canis familiaris [1]): 11.4 | Activity (Canis familiaris [2]): <5

CCN(CCCCCCOC(=O)c1ccc(OC)c(OC)c1)C1CCc2ccccc2C1.Cl (stereo not given)
Activity (Canis familiaris [2]): 31.3

COc1ccc2c(c1)CCC(N(CCCCOC(=O)c1ccc(OC)c(OC)c1)C(C)C)C2.Cl (stereo not given)
Activity (Canis familiaris [1]): 19.6 | Activity (Canis familiaris [2]): <5

CCN(CCCCOC(=O)c1ccc(OC)c(OC)c1)C1CCc2c(cccc2OC)C1.Cl (stereo not given)
Activity (Canis familiaris [1]): 13.3 | Activity (Canis familiaris [2]): <5

CCN(CCCCOC(=O)c1ccc(OC)c(OC)c1)C1CCc2ccc(OC)cc2C1.Cl (stereo not given)
Activity (Canis familiaris [2]): 18.1

CCOc1cc(C(=O)OCCCCN(CC)C2CCc3cc(OC)ccc3C2)cc(OCC)c1OCC.Cl (stereo not given)
Activity (Canis familiaris [1]): -6.8 | Activity (Canis familiaris [2]): <5

CCN(CCCOC(=O)c1ccc(OC)c(OC)c1)C1CCc2cc(OC)ccc2C1.Cl (stereo not given)
Activity (Canis familiaris [1]): -1 | Activity (Canis familiaris [2]): <5

COc1ccc2c(c1)CCC(N(C)CCCCOC(=O)c1ccc(OC)c(OC)c1)C2.Cl (stereo not given)
Activity (Canis familiaris [1]): -4.9 | Activity (Canis familiaris [2]): <5

CCN(CCCCOC(=O)c1ccc(OC)c(OC)c1)C1CCc2cc(OC)ccc2C1.Cl (stereo not given)
Activity (Canis familiaris [2]): 6.6

CCN(CCCCOC(=O)c1ccc(OC)c(OC)c1)C(C)Cc1ccc(OC)cc1 (stereo not given) [MEBEVERINE]
Activity (Canis familiaris [2]): 2.6

CCN(CCCCOC(=O)c1ccc(OC)cc1)C1CCc2cc(OC)ccc2C1.Cl (stereo not given)
Activity (Canis familiaris [1]): 8.1 | Activity (Canis familiaris [2]): <5

CCN(CCCCOC(=O)c1ccc(OC)c(OC)c1)C1CCc2ccccc2C1.Cl (stereo not given)
Activity (Canis familiaris [2]): <5

CCN(CC(C)(C)COC(=O)c1ccc(OC)c(OC)c1)C1CCc2cc(OC)ccc2C1.Cl (stereo not given)
Activity (Canis familiaris [1]): 15.8 | Activity (Canis familiaris [2]): <5

CCN(CCCCOC(=O)c1ccc(OC)c(OC)c1)C1CCc2c(OC)ccc(OC)c2C1.Cl (stereo not given)
Activity (Canis familiaris [1]): 9.2 | Activity (Canis familiaris [2]): <5

CCCN(CCCCOC(=O)c1ccc(OC)c(OC)c1)C1CCc2cc(OC)ccc2C1.Cl (stereo not given)
Activity (Canis familiaris [2]): <5

CCN(CCCCOC(=O)c1cc(OC)c(OC)c(OC)c1)C1CCc2cc(OC)ccc2C1.CS(=O)(=O)O (stereo not given)
Activity (Canis familiaris [1]): 1.1 | Activity (Canis familiaris [2]): <5

CCN(CCCCCCCCCCOC(=O)c1ccc(OC)c(OC)c1)C1CCc2cc(OC)ccc2C1.Cl (stereo not given)
Activity (Canis familiaris [1]): 13.7 | Activity (Canis familiaris [2]): <5

CCOc1ccc2c(c1)CCC(N(CC)CCCCOC(=O)c1ccc(OC)c(OC)c1)C2.Cl (stereo not given)
Activity (Canis familiaris [1]): 7.4 | Activity (Canis familiaris [2]): <5

CCN(CCCCCCO)C1CCc2cc(OC)ccc2C1 (stereo not given)
Activity (Canis familiaris [1]): 5.2

CCN(CCCCO)C1CCc2cc(OC)ccc2C1 (stereo not given)
Activity (Canis familiaris [1]): 2.6 | Activity (Canis familiaris [2]): <5

CCN(CCCCCCOC(=O)c1ccc(OC)c(OC)c1)C1CCc2cc(OC)c(OC)cc2C1.Cl (stereo not given)
Activity (Canis familiaris [2]): 64.5

CCN(CCCCOC(=O)c1ccc2c(c1)OCO2)C1CCc2cc(OC)ccc2C1.Cl (stereo not given)
Activity (Canis familiaris [1]): 1.3 | Activity (Canis familiaris [2]): <5

CCN(CCCCOC(=O)c1ccc(OC)c(OC)c1)C1CCc2cccc(OC)c2C1.Cl (stereo not given)
Activity (Canis familiaris [2]): 21.3

CCN(CCCCOC(=O)c1ccc(OC)c(OC)c1)C1CCc2cc3c(cc2C1)OCO3.Cl (stereo not given)
Activity (Canis familiaris [1]): 13.4 | Activity (Canis familiaris [2]): <5

CCCOc1ccc2c(c1)CCC(N(CC)CCCCOC(=O)c1ccc(OC)c(OC)c1)C2.Cl (stereo not given)
Activity (Canis familiaris [1]): 1.4 | Activity (Canis familiaris [2]): <5

CCN(CCCCOC(=O)c1ccccc1)C1CCc2cc(OC)ccc2C1.Cl (stereo not given)
Activity (Canis familiaris [1]): -2.6 | Activity (Canis familiaris [2]): <5
